“And” between values parts separate entries of the source, which are not always exact repeats. Equal values may be shown once. Toxic doses and inconclusive results are not listed.
System: BDF1 mice, B16 melanoma ip, median survival T/C
Test: NCI In Vivo Anticancer Drug Screen. Data for tumor model B16 Melanoma (intraperitoneal) in B6D2F1 (BDF1) mice
Conditions: endpoint: median survival time, higher = longer survival
Summary of the method: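 Each result divides a survival or tumor-size measurement in the compound-treated group by the same measurement in the vehicle group.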

[1] = dose: 2.0 mg/kg/injection, schedule: Q01DX009 (ip), vehicle: saline
[2] = dose: 4.0 mg/kg/injection, schedule: Q01DX009 (ip), vehicle: saline
[3] = dose: 5.0 mg/kg/injection, schedule: Q01DX009 (ip), vehicle: saline with Tween-80
[4] = dose: 100.0 mg/kg/injection, schedule: Q01DX009 (ip), vehicle: Klucel (hydroxypropylcellulose) (HPC)
[5] = dose: 200.0 mg/kg/injection, schedule: Q01DX009 (ip), vehicle: Klucel (hydroxypropylcellulose) (HPC)
[6] = dose: 400.0 mg/kg/injection, schedule: Q01DX009 (ip), vehicle: Klucel (hydroxypropylcellulose) (HPC)
[7] = dose: 100.0 mg/kg/injection, schedule: Q01DX009 (ip), vehicle: saline with Tween-80
[8] = dose: 200.0 mg/kg/injection, schedule: Q01DX009 (ip), vehicle: saline with Tween-80
[9] = dose: 400.0 mg/kg/injection, schedule: Q01DX009 (ip), vehicle: saline with Tween-80
[10] = dose: 12.5 mg/kg/injection, schedule: Q04DX003 (ip), vehicle: Klucel (hydroxypropylcellulose) (HPC)
[11] = dose: 25.0 mg/kg/injection, schedule: Q04DX003 (ip), vehicle: Klucel (hydroxypropylcellulose) (HPC)
[12] = dose: 12.5 mg/kg/injection, schedule: Q01DX009 (ip), vehicle: saline
[13] = dose: 25.0 mg/kg/injection, schedule: Q01DX009 (ip), vehicle: saline
[14] = dose: 50.0 mg/kg/injection, schedule: Q01DX009 (ip), vehicle: saline
[15] = dose: 100.0 mg/kg/injection, schedule: Q01DX009 (ip), vehicle: saline
[16] = dose: 50.0 mg/kg/injection, schedule: Q01DX009 (ip), vehicle: Klucel (hydroxypropylcellulose) (HPC)
[17] = dose: 200.0 mg/kg/injection, schedule: Q01DX009 (ip), vehicle: saline

In the case of `CCCCCCCCCCCCCCCC[N+](C)(C)C`, the T/C (dose: 0.5 mg/kg/injection, schedule: Q04DX003 (ip), vehicle: saline) was 95 % of control, the T/C (dose: 1.0 mg/kg/injection, schedule: Q01DX009 (ip), vehicle: saline) was 93 % of control and the T/C (dose: 1.0 mg/kg/injection, schedule: Q04DX003 (ip), vehicle: saline) was 95 % of control. The T/C (dose: 1.25 mg/kg/injection, schedule: Q01DX009 (ip), vehicle: saline with Tween-80) was 102 % of control, the T/C [1] was 93 % of control and the T/C (dose: 2.0 mg/kg/injection, schedule: Q04DX003 (ip), vehicle: saline) was 95 % of control. For the same compound, the T/C (dose: 2.5 mg/kg/injection, schedule: Q01DX009 (ip), vehicle: saline with Tween-80) was 107 % of control, the T/C (dose: 2.75 mg/kg/injection, schedule: Q01DX009 (ip), vehicle: saline) was 93 % of control and the T/C [2] was 91 % of control. For the same compound, the T/C [3] was 91 % of control and the T/C (dose: 5.5 mg/kg/injection, schedule: Q01DX009 (ip), vehicle: saline) was 93 % of control.

With `CN(C)CCCNc1c2ccccc2nc2cccc([N+](=O)[O-])c12` the T/C (dose: 2.0 micrograms/kg/injection, schedule: Q01DX009 (ip), vehicle: saline) was 112 % of control, the T/C (dose: 4.0 micrograms/kg/injection, schedule: Q01DX009 (ip), vehicle: saline) was 116 % of control and the T/C (dose: 8.0 micrograms/kg/injection, schedule: Q01DX009 (ip), vehicle: saline) was 107 % of control. The T/C (dose: 16.0 micrograms/kg/injection, schedule: Q01DX009 (ip), vehicle: saline) was 109 % of control, the T/C (dose: 32.0 micrograms/kg/injection, schedule: Q01DX009 (ip), vehicle: saline) was 121 % of control and the T/C (dose: 63.0 micrograms/kg/injection, schedule: Q01DX009 (ip), vehicle: saline) was 103 % of control. The T/C (dose: 125.0 micrograms/kg/injection, schedule: Q01DX009 (ip), vehicle: saline) was 90 % of control.

In the case of `Cc1ccc(NS(=O)(=O)c2ccc(F)cc2)cc1Cl`, the T/C [4] was 90 % of control, the T/C (dose: 100.0 mg/kg/injection, schedule: Q04DX003 (ip), vehicle: Klucel (hydroxypropylcellulose) (HPC)) was 103 % of control and the T/C [5] was 100 % of control. The T/C (dose: 200.0 mg/kg/injection, schedule: Q04DX003 (ip), vehicle: Klucel (hydroxypropylcellulose) (HPC)) was 100 % of control, the T/C [6] was 86 % of control and the T/C (dose: 400.0 mg/kg/injection, schedule: Q04DX003 (ip), vehicle: Klucel (hydroxypropylcellulose) (HPC)) was 110 % of control.

With `COc1ccc(Nc2c3ccccc3nc3ccccc23)cc1` the T/C (dose: 12.5 mg/kg/injection, schedule: Q01DX009 (ip), vehicle: saline with Tween-80) was 120 % of control.

For `Cc1ccc(Cl)cc1NC(=O)Nc1ccc(C)c(NC(=O)Nc2cc(Cl)ccc2C)c1`, the T/C [7] was 90 % of control, the T/C [8] was 95 % of control and the T/C [9] was 90 % of control.

With `COc1cc(NS(C)(=O)=O)ccc1Nc1c2ccccc2nc2c(C)cccc12` the T/C [1] was 151 % of control, the T/C (dose: 2.5 mg/kg/injection, schedule: Q01DX009 (ip), vehicle: other) was 180 % of control and the T/C [2] was 213 % of control. For the same compound, the T/C (dose: 5.0 mg/kg/injection, schedule: Q01DX009 (ip), vehicle: other) was 190 % of control, the T/C [3] was 167 % of control and the T/C (dose: 10.0 mg/kg/injection, schedule: Q01DX001 (ip), vehicle: saline sonified) was 163 % of control. For the same compound, the T/C [10] was 160 % of control, the T/C (dose: 20.0 mg/kg/injection, schedule: Q01DX001 (ip), vehicle: saline sonified) was 166 % of control and the T/C [11] was 200 % of control. For the same compound, the T/C (dose: 60.0 mg/kg/injection, schedule: Q01DX001 (ip), vehicle: saline sonified) was 183 % of control.

With `C=CCNC(=S)Nc1cccc(Cl)c1C` the T/C [10] was 93 % of control, the T/C [11] was 100 % of control and the T/C (dose: 50.0 mg/kg/injection, schedule: Q04DX003 (ip), vehicle: Klucel (hydroxypropylcellulose) (HPC)) was 100 % of control.

In the case of `Nc1nc(N=Nc2ccc(O)cc2)cc(=O)[nH]1`, the T/C (dose: 100.0 mg/kg/injection, schedule: Q01DX009 (ip), vehicle: other) was 109 % of control, the T/C (dose: 200.0 mg/kg/injection, schedule: Q01DX009 (ip), vehicle: other) was 105 % of control and the T/C (dose: 400.0 mg/kg/injection, schedule: Q01DX009 (ip), vehicle: other) was 87 % of control.

`O=c1[nH]cc(F)c(=O)n1-c1ccco1` was tested, and the T/C (dose: 12.5 mg/kg/injection, schedule: Q01DX011 (ip), vehicle: saline with Tween-80) was 122 % of control and the T/C (dose: 25.0 mg/kg/injection, schedule: Q01DX011 (ip), vehicle: saline with Tween-80) was 115 % of control.

For `CCCC1(CCC)CN(CO)C1=O`, the T/C [12] was 100 % of control, the T/C [13] was 100 % of control and the T/C [14] was 106 % of control. For the same compound, the T/C [15] was 111 % of control and the T/C (dose: 200.0 mg/kg/injection, schedule: Q04DX003 (ip), vehicle: saline) was 91 % of control.

In the case of `COc1ccc(C(=O)c2cc(OC)c(OC)c(OC)c2)cc1OC`, the T/C [4] was 110 % of control, the T/C [7] was 111 % of control and the T/C [5] was 105 % of control. For the same compound, the T/C [8] was 104 % of control, the T/C [6] was 115 % of control and the T/C [9] was 102 % of control.

`c1ccc(-c2csc3c4ccccc4c4ccccc4[n+]23)cc1` was tested, and the T/C (dose: 0.5 mg/kg/injection, schedule: Q01DX009 (ip), vehicle: saline with Tween-80) was 95 % of control, the T/C (dose: 1.0 mg/kg/injection, schedule: Q01DX009 (ip), vehicle: saline with Tween-80) was 95 % of control and the T/C (dose: 2.0 mg/kg/injection, schedule: Q01DX009 (ip), vehicle: saline with Tween-80) was 93 % of control.

For `CN(C)/N=N/c1[nH]ncc1C(N)=O`, the T/C (dose: 50.0 mg/kg/injection, schedule: Q01DX009 (ip), vehicle: carboxymethylcellulose (CMC)) was 105 % of control.

In the case of `c1ccc(CC2NCCc3c2[nH]c2ccccc32)cc1` (stereo not given), the T/C (dose: 12.5 mg/kg/injection, schedule: Q01DX009 (ip), vehicle: Klucel (hydroxypropylcellulose) (HPC)) was 105 % of control, the T/C (dose: 25.0 mg/kg/injection, schedule: Q01DX009 (ip), vehicle: Klucel (hydroxypropylcellulose) (HPC)) was 91 % of control and 95 % of control and the T/C [16] was 86 % of control and 89 % of control. For the same compound, the T/C [4] was 86 % of control and the T/C [5] was 105 % of control.

For `COC(=O)[C@@H]1c2cc3c(c(O)c2[C@@H](OC)C[C@@]1(C)O)C(=O)c1c(O)cc2c(c1C3=O)OC1O[C@@]2(C)[C@H](O)[C@@H](N(C)C)[C@@H]1O`, the T/C [12] was 155 % of control and 158 % of control, the T/C [13] was 165 % of control and 178 % of control and the T/C [14] was 184 % of control and 186 % of control. For the same compound, the T/C [17] was 153 % of control.

For `Cc1ncc([N+](=O)[O-])n1CCO`, the T/C (dose: 18.7 mg/kg/injection, schedule: Q01DX009 (ip), vehicle: Klucel (hydroxypropylcellulose) (HPC)) was 104 % of control, the T/C (dose: 37.5 mg/kg/injection, schedule: Q01DX009 (ip), vehicle: Klucel (hydroxypropylcellulose) (HPC)) was 118 % of control and the T/C (dose: 75.0 mg/kg/injection, schedule: Q01DX009 (ip), vehicle: Klucel (hydroxypropylcellulose) (HPC)) was 115 % of control. For the same compound, the T/C (dose: 150.0 mg/kg/injection, schedule: Q01DX009 (ip), vehicle: Klucel (hydroxypropylcellulose) (HPC)) was 102 % of control, the T/C (dose: 300.0 mg/kg/injection, schedule: Q01DX009 (ip), vehicle: Klucel (hydroxypropylcellulose) (HPC)) was 113 % of control and the T/C (dose: 600.0 mg/kg/injection, schedule: Q01DX009 (ip), vehicle: Klucel (hydroxypropylcellulose) (HPC)) was 106 % of control.

In the case of `CCC(C)C(N)C(=O)NC(CC(N)=O)C(=O)NC(CC(C)C)C(=O)NC(CCCCN)C(=O)NC(C)C(=O)NC(CC(C)C)C(=O)NC(C)C(=O)NC(C)C(=O)NC(CC(C)C)C(=O)NC(C)C(=O)NC(CCCCN)C(=O)NC(CCCCN)C(=O)NC(C(=O)NC(CC(C)C)C(N)=O)C(C)CC` (stereo not given), the T/C (dose: 1.0 mg/kg/injection, schedule: Q01DX009 (ip), vehicle: Klucel (hydroxypropylcellulose) (HPC)) was 97 % of control, the T/C (dose: 2.0 mg/kg/injection, schedule: Q01DX009 (ip), vehicle: Klucel (hydroxypropylcellulose) (HPC)) was 97 % of control and the T/C (dose: 4.0 mg/kg/injection, schedule: Q01DX009 (ip), vehicle: Klucel (hydroxypropylcellulose) (HPC)) was 91 % of control.

With `CC(/C=N/N=C(N)N)=N\NC(N)=S` the T/C (dose: 50.0 mg/kg/injection, schedule: Q01DX009 (ip), vehicle: distilled water + Tween-80) was 105 % of control and the T/C (dose: 100.0 mg/kg/injection, schedule: Q01DX009 (ip), vehicle: distilled water + Tween-80) was 94 % of control.

For `COc1ccc2ccccc2c1C1NC(=O)c2ccccc2N1` (stereo not given), the T/C [16] was 106 % of control, the T/C [4] was 108 % of control and the T/C [5] was 109 % of control. For the same compound, the T/C [6] was 115 % of control.

`CCOc1cc[n+]([O-])cc1` was tested, and the T/C [14] was 103 % of control, the T/C [15] was 104 % of control and the T/C [17] was 102 % of control.

`CC(CC=O)CCCC(C)(C)O` (stereo not given) was tested, and the T/C [4] was 101 % of control and the T/C [5] was 97 % of control.
